Emax and EC50 data for 8 compounds are collected here from patent publication US20230061736A1, “GPR119 AGONISTS” (Kallyope, Inc., priority 2019, published 2023).

Broadly, the Emax is the size of the effect at its maximum, as opposed to the concentration needed. The term EC50 denotes the concentration that produces a half-maximal response.

The target in the test is T1, human GPR119 (hGPR119) (Homo sapiens, UniProt Q8TDV5).
T1 construct: expressed in transfected cells
T1 sequence (Q8TDV5 1-335): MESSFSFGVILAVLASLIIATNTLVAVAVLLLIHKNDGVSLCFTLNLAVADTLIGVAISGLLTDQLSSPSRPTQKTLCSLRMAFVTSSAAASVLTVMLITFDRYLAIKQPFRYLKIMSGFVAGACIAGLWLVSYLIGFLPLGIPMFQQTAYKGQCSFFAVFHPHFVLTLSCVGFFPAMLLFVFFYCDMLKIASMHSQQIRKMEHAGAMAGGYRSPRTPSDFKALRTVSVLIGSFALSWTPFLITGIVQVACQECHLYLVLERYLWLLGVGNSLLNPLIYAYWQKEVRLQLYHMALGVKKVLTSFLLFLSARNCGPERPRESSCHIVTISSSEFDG
Briefly: cAMP accumulation assay (cAMP Gs dynamic HTRF kit). The format is cell-based. Conditions: CHO-K1 cells stably expressing hGPR119, 4-parameter fit; for Emax: 1 h, % activity normalized to Max/Min controls; for EC50: cAMP accumulation. The essentials: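 CHO-K1 cells stably expressing hGPR119, used as assay-ready frozen stocks at ~10,000 cells/well, exposed to compound dose-response in stimulation buffer with Tween 80 for 60 min at 37° C. cAMP read by HTRF (665/620 nm ratio), normalised to Max/Min controls; EC50 and Max activity from 4-parameter fit.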
In general terms: cAMP levels reflect the balance of adenylyl cyclase and phosphodiesterase activity.

In turn, `COCc1cnc(N2CCC(CCCOc3cc(F)c(CC(=O)N4CC[C@@H](CNCC(O)(CO)CO)C4)c(F)c3)CC2)nc1` [Example 159, 2-[2,6-difluoro-4-[3-[1-[5-(methoxymethyl)pyrimidin-2-yl]-4-piperidyl]propoxy]phenyl]-1-[(3S)-3-[[[2,3-dihydroxy-2-(hydroxymethyl)propyl]amino]methyl]pyrrolidin-1-yl]ethanone] displayed a maximal response (Emax) of 100 to 130% and a concentration for a half-maximal effect (EC50) of no more than 100 nM.
As to `COCc1cnc(N2CCC(CCCOc3cc(F)c(CC(=O)N4CC[C@@H](CNCC(CO)(CO)CO)C4)c(F)c3)CC2)nc1` [Example 160, 2-[2,6-difluoro-4-[3-[1-[5-(methoxymethyl)pyrimidin-2-yl]-4-piperidyl]propoxy]phenyl]-1-[(3S)-3-[[[3-hydroxy-2,2-bis(hydroxymethyl)propyl]amino]methyl]pyrrolidin-1-yl]ethanone], the Emax is no less than 130% and the EC50 was no more than 100 nM.
For `COCc1cnc(N2CCC([C@H]3C[C@H]3CCOc3ccc(CC(=O)N4CC[C@@H](CNCC(O)(CO)CO)C4)c(F)c3)CC2)nc1` [Example 162, 2-[2-fluoro-4-[2-[(1S,2R)-2-[1-[5-(methoxymethyl)pyrimidin-2-yl]-4-piperidyl]cyclopropyl]ethoxy]phenyl]-1-[(3S)-3-[[[2,3-dihydroxy-2-(hydroxymethyl)propyl]amino]methyl]pyrrolidin-1-yl]ethanone], the maximal effect (Emax) lay within 100 to 130% and the concentration for a half-maximal effect (EC50) is no more than 100 nM.
Compound `COCc1cnc(N2CCC([C@H]3C[C@H]3CCOc3ccc(CC(=O)N4CC[C@@H](CNCC(CO)(CO)CO)C4)c(F)c3)CC2)nc1` [Example 163, 2-[2-fluoro-4-[2-[(1S,2R)-2-[1-[5-(methoxymethyl)pyrimidin-2-yl]-4-piperidyl]cyclopropyl]ethoxy]phenyl]-1-[(3S)-3-[[[3-hydroxy-2,2-bis(hydroxymethyl)propyl]amino]methyl]pyrrolidin-1-yl]ethanone] registered an Emax of 100 to 130% and an EC50 of no more than 100 nM.
In turn, `O=C(Cc1ccc(OCCCC2CCN(c3ncc(Cl)cn3)CC2)cc1F)N1CC(CCNC[C@H](O)[C@H](O)[C@H](O)CO)C1` [Example 164, 2-[4-[3-[1-(5-chloropyrimidin-2-yl)-4-piperidyl]propoxy]-2-fluoro-phenyl]-1-[3-[2-[[(2S,3S,4R)-2,3,4,5-tetrahydroxypentyl]amino]ethyl]azetidin-1-yl]ethanone] gave a maximal effect (Emax) of 100 to 130% and a 50% effective concentration (EC50) of no more than 100 nM.
Consider `O=C(Cc1ccc(OCCCC2CCN(c3ncc(Cl)cn3)CC2)cc1F)N1CC(CNC[C@H](O)[C@H](O)[C@H](O)CO)C1` [Example 165, 2-[4-[3-[1-(5-chloropyrimidin-2-yl)-4-piperidyl]propoxy]-2-fluoro-phenyl]-1-[3-[[[(2S,3S,4R)-2,3,4,5-tetrahydroxypentyl]amino]methyl]azetidin-1-yl]ethanone], for which the maximal response (Emax) was in the range of 100 to 130% and the EC50 is no more than 100 nM.
As for `O=C(Cc1ccc(OCCCC2CCN(c3ncc(Cl)cn3)CC2)cc1F)N1CC(CNC[C@H](O)[C@@H](O)[C@H](O)CO)C1` [Example 166, 2-[4-[3-[1-(5-chloropyrimidin-2-yl)-4-piperidyl]propoxy]-2-fluoro-phenyl]-1-[3-[[[(2S,3R,4R)-2,3,4,5-tetrahydroxypentyl]amino]methyl]azetidin-1-yl]ethanone], the Emax was 100 to 130% and the half-maximal effective concentration (EC50) is no more than 100 nM.
On to `O=C(Cc1ccc(OCCCC2CCN(c3ncc(Cl)cn3)CC2)cc1F)N1CC(CNC[C@@H](O)[C@H](O)[C@H](O)CO)C1` [Example 167, 2-[4-[3-[1-(5-chloropyrimidin-2-yl)-4-piperidyl]propoxy]-2-fluoro-phenyl]-1-[3-[[[(2R,38,4R)-2,3,4,5-tetrahydroxypentyl]amino]methyl]azetidin-1-yl]ethanone], for which the Emax was in the range of 100 to 130% and the concentration for a half-maximal effect (EC50) was no more than 100 nM.
